Read-outs that look alike come from different tables or passages of the source. Ends that are not written are not given here.
What was measured:
Erwinia amylovora [1] = assay: Spot test screening of AMPs on plates; type: cell-based, Erwinia amylovora strain PGL Z1; design: key to Spot test result at 1 mM / Spot test result at 500 µM / Spot test result at 250 µM / Spot test result at 100 µM / Spot test result at 50 µM / Spot test result at 25 µM / Spot test result at 12.5 µM: +: Clear plaque formation; -: no plaque formation
Method: (§1) The bacterial material consisted of E. amylovora strain PGL Z1, isolated in 2013 from pear in Apulia region (Italy), and Xanthomonas campestris pv. campestris strain CFBP 1710 (X. campestris), isolated in 1975 from Brassica oleracea var. botrytis in France, which was used as a control to investigate the bactericidal activity and action mode of AMPs against two different bacteria. The bacterial strains were cultured on yeast extract peptone glucose agar (YPGA) and broth (YPG) media, consisting of 0.5% yeast extract, 0.5% peptone, 1% glucose and 1.5% agar. E. amylovora and X. campestris cell suspensions were prepared in sterile distilled water and the suspensions were adjusted to an optical density at 600 nm (OD600) of 0.1, which corresponds approximately to 10^8 CFU/mL.
The nine AMPs were screened using the spot test to select those with the best antibacterial activity against E. amylovora. Briefly, 300 µL of E. amylovora suspension (10^8 CFU/mL) was poured into the plates and maintained at room temperature for 15 min. Subsequently, 5 μL from each peptide at different concentrations (1000, 500, 250, 100, 50, 25 and 12.5 μM) was spotted onto the surface of the plates, followed by overnight incubation at 25 °C. Sterile distilled water was spotted in the plates as a control.
Supplementary Table S1. Results of the spot tests for the nine antimicrobial peptides used against Erwinia
Ascaphin-8 GF-19 + + + + + - -
DASamP1 FF-13 + + + - - - -
DASamP2 IL-14 + + + + + - -
Lycotoxin I IL-25 + + + + - - -
Maculatin 1.3 GF-21 + + + - - - -
Piscidin 1 FG-22 + + + + + - -
BP178 KL-29 + + + + + + -
RIJK2 RV-12 + + + - - - -
+: Clear plaque formation; -: no plaque formation.

Erwinia amylovora [2] = details: 24 h
Method: as §1
Briefly, 20 µL from each concentration (50 and 250 µM) was mixed with 180 µL of E. amylovora suspension (YPG) and incubated at 25 °C for 24 h. Six OD600 nm measures were taken over 24 h using the NanoDrop™ One/OneC Microvolume UV-Vis Spectrophotometer (ThermoFisher Scientific, Waltham, MA, USA).

Erwinia amylovora [3] = assay: Fluorescence microscopy LIVE/DEAD BacLight (SYTO9/PI); type: cell-based, Erwinia amylovora strain PGL Z1; details: 1 h, calculated from SYTO9 and PI counts
Method: The bactericidal activity of the selected peptides (GF19, FG22, IL14, and KL29) was assessed by a test contact for 24 h, as described (Section 2.3), coupled with v-qPCR assay using the PMAxx™ (Biotium, Rome, Italy). PMAxx™ is a photo-reactive dye that binds to DNA with high affinity; upon cell lysis, it covalently attaches to disrupted DNA that cannot be amplified by PCR. This unique feature makes PMAxx™ extremely useful in selective detection of bacterial cells with intact plasma membranes by qPCR. Briefly, after 24 h at 25 °C, 200 µL of the mixture was transferred to a new tube and treated with PMAxx at a final concentration of 7.5 μM. Subsequently, samples were incubated in the dark at room temperature for 8 min, followed by photoactivation for 15 min. Genomic DNA of all samples was extracted using the cetyltrimethylammonium bromide (CTAB) method. v-qPCR was carried out in a thermocycler apparatus (Bio-Rad CFX96, BioRad, Milan, Italy), using Ea-lsc primers and conditions reported in Laforest et al.. The v-qPCR cycles consisted of an initial denaturation step of 95 °C for 5 min; 45 cycles of 95 °C for 30 s and 60 °C for 30 s with fluorescence readings at each cycle. For the FM assay, aliquots of E. amylovora suspension were incubated with 50 and 250 μM of selected peptides for 1 h at room temperature. The same protocol was used for X. campestris at different concentrations (100, 50, 25, 12.5, 6.25, 2 μM) using KL29 peptide, known for its potent bactericidal activity against X. campestris. The LIVE/DEAD ®BacLight™ viability kit (ThermoFisher Scientific, Milan, Italy) was used according to the manufacturer’s recommendation to assess the integrity of bacteria cells treated with the peptides at 1 h post-infection (Stocks, 2004). Briefly, 9 μL of sample was mixed with 0.5 μL of SYTO9 and 0.5 μL of propidium iodide (PI) for 15 min at room temperature in the dark. Photomicrographs were taken with a Nikon E800 microscope using a fluorescein isothiocyanate (480/30 excitation filter, DM505 dichroic mirror, 535/40 emission filter) and tetramethyl rhodamine isocyanate (546/10 excitation filter, DM575 dichroic mirror, 590 emission filter) fluorescence filter sets.
Supplementary Table S2. The statistical analysis consisted of counting the coloured spo ts (green: SYTO9 and red: PI) in the different channels of 10 replicas for the two concentrations of each antimicrobial peptide and the relative percentages of viable cells is calculated.
250 µM 50 µM % of viability
(1 picture or pasted object on this page, not shown here)

Erwinia amylovora [4] = assay: In vivo antibacterial activity on inoculated immature pear fruits; design: species or system Erwinia amylovora on pear fruits (cv. 'Recchia falsa'); details: immature pears, 6 days at 25 °C, eight replicates
Method: To evaluate the in vivo antibacterial activity of selected AMPs, immature pear fruits (cv. ‘Recchia falsa’) were inoculated with E. amylovora and AMPs were applied. Briefly, ten-week-old pears were disinfected by immersion in a 70% ethanol solution for 2 min and then rinsed 3 times in sterile distilled water. Disinfected fruits were pricked to approximately 5 mm deep, with a sterile micropipette tip and inoculated with 20 µL of E. amylovora suspension (10^8 CFU/mL). Once the fruits had absorbed the bacteria, two concentrations of peptides (50 and 250 µM) were used; 20 µL of the concentration was introduced into the inoculation site and incubated in a humid chamber at 25 °C for 6 days. Fruits inoculated with sterile water and with E. amylovora suspension were included as controls. The experiment consisted of eight replicates per treatment, and symptoms were recorded at 6 days post-infection. The symptoms developed in immature pears (i.e., necrosis or bacterial exudates) were evaluated by measuring the diameter of necrotic lesions. The data were then analyzed using variance analysis (ANOVA), followed by Duncan’s multiple range test (α = 0.05), using SPSS statistical software (version 24.0, IBM, Armonk, N.Y., USA). All data were presented as mean values ± standard deviation (SD).

Erwinia amylovora [5] = assay: Transmission electron microscopy of treated cells; type: cell-based, Erwinia amylovora strain PGL Z1; details: antibiotic control 0.5 mg/mL
Method: Aliquots of E. amylovora suspensions were incubated with the KL29 for 15 min at room temperature to investigate peptide antibacterial modes of action (lytic and non-lytic). E. amylovora suspensions treated with 0.5 mg/mL of streptomycin (bacteriostatic antibiotic), and ampicillin (bactericidal antibiotic) were used as controls. Preparations were observed under TEM (FEI MORGAGNI 282D, Hillsboro, OR, USA) by the dip method: the carbon coated copper/rhodium grids were incubated with treated and untreated bacterial suspension for 2 min, and then rinsed with 200 μL of distilled water. Negative staining was obtained by floating the grids on 200 μL of 0.5 % w/v UA-zero EM STAIN (Agar-Scientific Ltd., Stansted, UK) solution and observing them under the EM using an accelerating voltage of 80 kV.

Compound	Spot test result at 12.5 µM (Erwinia amylovora [1]; 5 µL peptide at 12.5 µM spotted on plate with E. amylovora 10^8 CFU/mL, overnight at 25 °C)	Spot test result at 25 µM (Erwinia amylovora [1]; 5 µL peptide at 25 µM spotted on plate with E. amylovora 10^8 CFU/mL, overnight at 25 °C)	Spot test result at 50 µM (Erwinia amylovora [1]; 5 µL peptide at 50 µM spotted on plate with E. amylovora 10^8 CFU/mL, overnight at 25 °C)	Spot test result at 100 µM (Erwinia amylovora [1]; 5 µL peptide at 100 µM spotted on plate with E. amylovora 10^8 CFU/mL, overnight at 25 °C)	Spot test result at 250 µM (Erwinia amylovora [1]; 5 µL peptide at 250 µM spotted on plate with E. amylovora 10^8 CFU/mL, overnight at 25 °C)	Spot test result at 500 µM (Erwinia amylovora [1]; 5 µL peptide at 500 µM spotted on plate with E. amylovora 10^8 CFU/mL, overnight at 25 °C)	Spot test result at 1 mM (Erwinia amylovora [1]; 5 µL peptide at 1 mM spotted on plate with E. amylovora 10^8 CFU/mL, overnight at 25 °C)	Spot test, killing of E. amylovora at 50 µM (in words) (Erwinia amylovora [1]; peptide 50 µM)	Inhibition of E. amylovora growth (OD600) (Erwinia amylovora [2]; 50 µM) [%]	Inhibition of E. amylovora growth (OD600) (Erwinia amylovora [2]; 250 µM) [%]	% of viability (Erwinia amylovora [3]; peptide 50 µM) [%]	% of viability (Erwinia amylovora [3]; peptide 250 µM) [%]	Reduction of fire blight symptoms (necrotic lesion diameter) (Erwinia amylovora [4]; 20 µL peptide at 50 µM into inoculation site) [%]	Reduction of fire blight symptoms (necrotic lesion diameter) (Erwinia amylovora [4]; 20 µL peptide at 250 µM into inoculation site) [%]	TEM morphology of treated E. amylovora cells (in words) (Erwinia amylovora [5])
FFHHIFRGIVHVGKTIHRLVTG [FG22, Piscidin 1]	-	-	+	+	+	+	+	could kill E. amylovora	~60	92	28	49	48	65	
[H]/N=C(/N)N[C@H]1[C@H](O)[C@@H](O)[C@H](O[C@@H]2O[C@@H](C)[C@](O)(C=O)[C@H]2O[C@@H]2O[C@@H](CO)[C@H](O)[C@@H](O)[C@@H]2NC)[C@@H](N/C(N)=N\[H])[C@@H]1O [streptomycin]															reduced cell lysis and morphological alterations similar to those treated with KL29 at 250 µM
CC1(C)S[C@@H]2[C@H](NC(=O)[C@H](N)c3ccccc3)C(=O)N2[C@H]1C(=O)O [ampicillin]															damaged cell walls and the decomposition of inner structures

Source: publication PMC9824012, “Exploring Antimicrobial Peptides Efficacy against Fire Blight (Erwinia amylovora)” (Plants, 2022)
